Molecules are shown by their SMILES.

The data set can be described thus: gradient 5% acetonitrile 3 min, to 50% in 2 min, to 85% in 15 min, held 3 min, 100 µL/min. To be noted: column: Zorbax Extend-C18 2.1 x 50 mm; eluents: water / acetonitrile, 0.1% formic acid. In outline:
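Each retention time is based on an adduct peak selected computationally and verified by manual inspection. Measurements used HPLC–quadrupole time-of-flight mass spectrometry in positive and negative ionization mode on mixtures of ~100 pure standards. Chromatography ran on a Zorbax Extend-C18 column (2.1 × 50 mm, 1.8 μm) at 100 μL/min with water and acetonitrile, each containing 0.1% formic acid, and dead and dwell volumes of 40 μL and 900 μL.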
The molecule `O=C(NC1CCCCC1)N1CCN(CCn2c(-c3ccncc3)nc3cccnc32)CC1` gave an RP-LC retention time of 585 s.

In turn, `Cc1cc(C)n(-c2ccc(=O)n(CCNS(=O)(=O)c3ccccc3C(F)(F)F)n2)n1` yielded an RP-LC retention time of 763 s.

For `Cc1ccc(C)c(S(=O)(=O)N2CCCCCC2c2nnc(C)o2)c1` (stereo not given), the RP-LC retention time amounted to 908 s.

On to `Cc1nc2cc(-c3noc(-c4ccc(C#N)cc4)n3)ccc2n(C2CCCC2)c1=O`, for which the RP-LC retention time was found to be 691 s.

`COc1nn(C)cc1C(=O)NCc1cc(-c2cccs2)on1`: the RP-LC retention time is 662 s.

On to `CC(C)NC(=O)N1CCCC(c2cccc(C(=O)NCc3ccccc3Cl)c2)C1` (stereo not given), for which the RP-LC retention time stood at 909 s.

Molecule `Cc1ccc(CNC(=O)C2(C)Cn3nc(C(=O)NCc4ccccc4)cc3C(=O)N2C)cc1` (stereo not given) had an RP-LC retention time of 766 s.

Molecule `N#CCCSc1nnc2sc3ccccc3n12` yielded an RP-LC retention time of 828 s.

As for `Fc1ccc(-c2ccc(CNc3ncn[nH]3)o2)cc1Cl`, the RP-LC retention time came out at 692 s.

`Cc1nc(C)c(C(=O)NCC2Cn3cccc3C(=O)N2C)s1` (stereo not given): the RP-LC retention time stood at 594 s.

Consider `CN(C)C(CNC(=O)Nc1cccs1)c1ccccc1Cl` (stereo not given), for which the RP-LC retention time worked out at 562 s.

With `O=C(c1cccnc1)N1CCC2(CC1)Nc1cc(F)ccc1-n1cccc12`, the RP-LC retention time is 792 s.

As to `Cn1c(C2CCN(C(=O)Nc3ccccc3F)CC2)cc(=O)n2nccc12`, the RP-LC retention time came out at 622 s.

For the molecule `CCn1c(=O)c(C(=O)NCc2ccc(OC)cc2)nc2cccnc21`, the RP-LC retention time is 720 s.

In the case of `O=C(Oc1ccccc1)N(c1ccccc1)c1ccccc1`, the RP-LC retention time came to 1160 s.

In turn, `Cc1cccc(Oc2nccnc2N2CCC(C(=O)NC(C)c3ccccc3)CC2)c1` (stereo not given) came in with an RP-LC retention time of 1020 s.

On to `O=C(NC1CCCC1)C1(CCO)CCN(Cc2ccccc2)C1` (stereo not given), for which the RP-LC retention time was determined as 609 s.

In turn, `O=C(CCc1csc(NC(=O)c2ccc(F)cc2)n1)Nc1ccc(-n2cnnn2)cc1` registered an RP-LC retention time of 741 s.

`CCc1cccc(NS(=O)(=O)c2cc3n(c2)CCCN(C)C3=O)c1` showed an RP-LC retention time of 728 s.

`Cc1ccc(-c2noc(-c3cccnc3N3CCN(Cc4ccccc4)CC3)n2)cc1` had an RP-LC retention time of 823 s.

For `Cc1cccc(Cn2nc3ccc(S(=O)(=O)N4CCCCCC4)cn3c2=O)c1`, the RP-LC retention time turned out to be 1000 s.

`Fc1cccc(CN2CCc3nc(N4CCN(c5ncccn5)CC4)ncc3C2)c1`: the RP-LC retention time is 633 s.

`CCC(CC)NC(=O)C1(CCO)CCN(Cc2ccccc2)C1` (stereo not given): the RP-LC retention time turned out to be 618 s.

Molecule `O=C(O)c1ccc(S(=O)(=O)NCc2ccccn2)cc1` showed an RP-LC retention time of 543 s.

The molecule `CCn1nccc1C(=O)N1CCC[C@H]1c1nc(-c2ccccc2)n[nH]1` displayed an RP-LC retention time of 627 s.

With `O=C(c1ccc(F)cc1)N1CCC(CCNS(=O)(=O)c2ccc(F)cc2F)CC1`, the RP-LC retention time was found to be 809 s.

In the case of `O=C(NCc1csc(-c2ccccc2)n1)C1CCN(S(=O)(=O)c2cccc3nsnc23)CC1`, the RP-LC retention time is 886 s.

For `Cc1ccc(SCC(=O)N2CCN(c3ccccc3)CC2)cc1`, the RP-LC retention time was determined as 942 s.

Molecule `Cc1cc(C)cc(NC(=O)CN2CCC(C(=O)NCc3ccccn3)CC2)c1` returned an RP-LC retention time of 548 s.

Consider `COc1ccc(-c2ccc(=O)n(Cc3nc(-c4ccccn4)no3)n2)cc1`, for which the RP-LC retention time turned out to be 780 s.

For the molecule `CCOC(=O)N1CCC2(CC1)OC(=O)C(C)=C2C(=O)Nc1ccc(F)cc1F`, the RP-LC retention time is 840 s.

Take `COc1ncc(C(=O)Nc2cccc(F)c2)c(C)n1`: the RP-LC retention time was 757 s.

As for `CCOc1cc(=O)n2c(c1C(=O)Nc1ccc(Cl)cc1)CCCC2`, the RP-LC retention time came to 769 s.

For the molecule `Cc1cc(=O)n(CC(=O)Nc2ccc(N(C)C)cc2)c(N2CCOCC2)n1`, the RP-LC retention time stood at 555 s.

Consider `O=C(Cn1nc2c(Oc3ccc(F)cc3)nccn2c1=O)NC1CCCCC1`, for which the RP-LC retention time was 804 s.

On to `Cn1nc(C(=O)N2CCC3(CC2)N=C(c2ccccc2)NO3)c2ccccc21`, for which the RP-LC retention time is 809 s.

The molecule `O=C(NC1CCCCC1)c1nc(-c2ccc(N3CCCC3)cc2)no1` registered an RP-LC retention time of 1160 s.

`COc1ccc(NC(=O)c2cnc(N3CCN(C(C)=O)CC3)nc2N)cc1` gave an RP-LC retention time of 601 s.

For the molecule `CCCS(=O)(=O)c1nc2ccc(NS(=O)(=O)c3ccc(F)c(Cl)c3)cc2s1`, the RP-LC retention time was 1020 s.

Consider `Cc1nc(-c2csc(S(=O)(=O)N3CCCC(C(=O)NCc4cccs4)C3)c2)no1` (stereo not given), for which the RP-LC retention time came to 847 s.

For the molecule `CCN1C(=O)c2cccnc2Sc2cc(CNC(=O)c3ccncc3)ccc21`, the RP-LC retention time was 623 s.

`CN(C)CCn1c2c(c(SCC(=O)Nc3cccc(Cl)c3)nc1=O)CCC2`: the RP-LC retention time was 651 s.

Regarding `CCc1nc(-c2ccc(-c3noc(-c4ccco4)n3)cc2)cs1`, the RP-LC retention time was 1170 s.

Consider `Cc1cc(=O)n(CC(=O)Nc2ccc(F)cc2)c(N2CCN(c3ccccc3)CC2)n1`, for which the RP-LC retention time is 828 s.

In turn, `CCc1cccc(C)c1NC(=O)C1CCN(S(C)(=O)=O)c2ccccc2O1` (stereo not given) returned an RP-LC retention time of 880 s.

With `O=C(COc1ccc(F)cc1)Nc1cc(F)c2nc(N3CCOCC3)ccc2c1`, the RP-LC retention time amounted to 882 s.

For the molecule `CCCS(=O)(=O)N1C[C@@H](COC)[C@H](c2ccccn2)C1`, the RP-LC retention time came out at 619 s.

In turn, `C[C@@H]1O[C@@H](OC2O[C@@H](COc3cc(O)c4c(=O)cc(-c5ccc(O)cc5)oc4c3)[C@@H](O)[C@@H](O)[C@@H]2O)[C@H](O)[C@H](O)[C@H]1O` (stereo not given in full) displayed an RP-LC retention time of 671 s.

Molecule `Cn1nccc1-c1cccc(-c2noc(CNS(=O)(=O)c3ccc(Cl)cc3)n2)c1` returned an RP-LC retention time of 902 s.

Turning to `Cc1ccc2c(c1)NN=C(C(=O)N1CCOCC1)S2(=O)=O`, the RP-LC retention time was 639 s.

For the molecule `CCNC(=O)N1CCCC(Cn2cnc3cccnc32)C1` (stereo not given), the RP-LC retention time was found to be 578 s.

As for `Cc1cc(NC(=O)C(=O)c2c[nH]c3ccccc23)ccc1Br`, the RP-LC retention time is 1120 s.

On to `O=C(CC(=O)Nc1ccc(F)cc1Cl)Nc1ccc2nc3n(c(=O)c2c1)CCCCC3`, for which the RP-LC retention time came out at 814 s.

`CCNC(=O)N1CCCC1c1cc(C)no1` (stereo not given) yielded an RP-LC retention time of 615 s.

For the molecule `O=C(NC(=O)c1c(Cl)nc2sccn12)Nc1ccc(Cl)cc1`, the RP-LC retention time turned out to be 977 s.

`Cc1cc2c(cc1CNC(=O)Cn1c(C(F)(F)F)nc3cc4c(cc31)OCCO4)OCCCO2` registered an RP-LC retention time of 851 s.

`COc1ccc(Cn2cc(C(=O)O)nn2)cc1F` gave an RP-LC retention time of 641 s.

Take `Cc1oc(C2CCN(C(=O)Nc3ccccc3F)CC2)nc1C(=O)N1CCCC1`: the RP-LC retention time turned out to be 753 s.

The molecule `CCc1nnc2c(=O)n(CC(=O)NCc3ccccc3F)c3cccnc3n12` showed an RP-LC retention time of 685 s.

Molecule `CC(C)CNC(=O)C1Cn2cccc2C(=O)N1C` (stereo not given) displayed an RP-LC retention time of 624 s.

Values taken from the METLIN SMRT retention time set (Domingo-Almenara et al. 2019).
